Several values for one entry are separate records, joined by “and”; a condition that tells them apart may be missing. Identical values can stand only once. Toxic doses and inconclusive results are not listed. Peptide text beside a SMILES is read from it.

The test system of the assay is BDF1 mice, B16 melanoma ip, median survival T/C. The assay is described as follows: NCI In Vivo Anticancer Drug Screen. Data for tumor model B16 Melanoma (intraperitoneal) in B6D2F1 (BDF1) mice. The note with it: endpoint: median survival time, higher = longer survival. The method, then: The antitumor activity of compounds was measured in mice bearing transplantable tumors. Survival or tumor size were measured and the results are expressed as the measurement made in the treated group (T) divided by the measurement made in the vehicle treated control group (C). The tumor model used in this assay is B16 Melanoma (intraperitoneal) in B6D2F1 (BDF1) mice

The mark [1] stands for this setting: dose: 25.0 mg/kg/injection, schedule: Q01DX009 (ip), vehicle: saline.
Where [2] appears, read: dose: 50.0 mg/kg/injection, schedule: Q01DX009 (ip), vehicle: saline.
Where [3] appears, read: dose: 100.0 mg/kg/injection, schedule: Q01DX009 (ip), vehicle: saline.
Where [4] appears, read: dose: 200.0 mg/kg/injection, schedule: Q01DX009 (ip), vehicle: saline.
The mark [5] stands for this setting: dose: 100.0 mg/kg/injection, schedule: Q01DX009 (ip), vehicle: Klucel (hydroxypropylcellulose) (HPC).
Where [6] appears, read: dose: 200.0 mg/kg/injection, schedule: Q01DX009 (ip), vehicle: Klucel (hydroxypropylcellulose) (HPC).
[7] abbreviates: dose: 400.0 mg/kg/injection, schedule: Q01DX009 (ip), vehicle: Klucel (hydroxypropylcellulose) (HPC).
[8] abbreviates: dose: 25.0 mg/kg/injection, schedule: Q01DX009 (ip), vehicle: water.
[9] abbreviates: dose: 50.0 mg/kg/injection, schedule: Q01DX009 (ip), vehicle: saline with Tween-80.
Setting [10] is: dose: 100.0 mg/kg/injection, schedule: Q01DX009 (ip), vehicle: saline with Tween-80.
Setting [11] is: dose: 200.0 mg/kg/injection, schedule: Q01DX009 (ip), vehicle: saline with Tween-80.
[12] abbreviates: dose: 400.0 mg/kg/injection, schedule: Q01DX009 (ip), vehicle: saline with Tween-80.

With `Cc1ccc(NC(=O)c2ccc(Cl)cc2)c(Br)c1`, the T/C (dose: 100.0 mg/kg/injection, schedule: Q04DX003 (ip), vehicle: saline with Tween-80) was 105 % of control; the T/C (dose: 200.0 mg/kg/injection, schedule: Q04DX003 (ip), vehicle: saline with Tween-80) was 97 % of control; the T/C (dose: 400.0 mg/kg/injection, schedule: Q04DX003 (ip), vehicle: saline with Tween-80) was 88 % of control.

In the case of `CSCCC(N)C(=O)NC(CC(N)=O)C(=O)O` (stereo not drawn) (H-Met-Asn-OH; configuration not given here), the T/C was 103 % of control under setting [1], 108 % of control under setting [2], 96 % of control under setting [3] and 89 % of control under setting [4].

Turning to `Cc1cc(C)cc(OCC2CNC(=O)O2)c1` (configuration not stated), the T/C reads like this: (dose: 25.0 mg/kg/injection, schedule: Q01DX009 (ip), vehicle: Klucel (hydroxypropylcellulose) (HPC)) 94 % of control; (dose: 50.0 mg/kg/injection, schedule: Q01DX009 (ip), vehicle: Klucel (hydroxypropylcellulose) (HPC)) 108 % of control; under setting [5], 91 % of control; under setting [6], 94 % of control; under setting [7], 100 % of control.

As to `CCCCCc1cc(O)c2c(c1)OC(C)(C)c1ccc(C)cc1-2`, the T/C is 115 % of control (dose: 64.0 mg/kg/injection, schedule: Q01DX009 (ip), vehicle: saline); 110 % of control (dose: 128.0 mg/kg/injection, schedule: Q01DX009 (ip), vehicle: saline); 112 % of control (dose: 256.0 mg/kg/injection, schedule: Q01DX009 (ip), vehicle: saline); 88 % of control (dose: 512.0 mg/kg/injection, schedule: Q01DX009 (ip), vehicle: saline).

As to `O=C(CC(O)(C(F)(F)F)C(F)(F)F)CC(O)(C(F)(F)F)C(F)(F)F`, the T/C by setting is: (dose: 1.25 mg/kg/injection, schedule: Q04DX003 (ip), vehicle: saline) 116 % of control; (dose: 2.5 mg/kg/injection, schedule: Q04DX003 (ip), vehicle: saline) 122 % of control and 116 % of control.

In the case of `NC(=O)c1cc([N+](=O)[O-])c(Cl)c([N+](=O)[O-])c1Cl`, the T/C reads like this: (dose: 4.0 mg/kg/injection, schedule: Q01DX009 (ip), vehicle: Klucel (hydroxypropylcellulose) (HPC)) 93 % of control; (dose: 8.0 mg/kg/injection, schedule: Q01DX009 (ip), vehicle: Klucel (hydroxypropylcellulose) (HPC)) 92 % of control.

Regarding `C=C1C(=O)O[C@H]2/C=C(/C)C3=CC(=O)[C@@](C)(C[C@@H](OC(=O)/C(C)=C\C)C12)O3` (some centres not stated), the T/C reads like this: (dose: 0.75 mg/kg/injection, schedule: Q01DX009 (ip), vehicle: Klucel (hydroxypropylcellulose) (HPC)) 98 % of control; (dose: 1.5 mg/kg/injection, schedule: Q01DX009 (ip), vehicle: Klucel (hydroxypropylcellulose) (HPC)) 93 % of control; (dose: 3.0 mg/kg/injection, schedule: Q01DX009 (ip), vehicle: Klucel (hydroxypropylcellulose) (HPC)) 88 % of control; (dose: 6.0 mg/kg/injection, schedule: Q01DX009 (ip), vehicle: Klucel (hydroxypropylcellulose) (HPC)) 91 % of control; (dose: 12.0 mg/kg/injection, schedule: Q01DX009 (ip), vehicle: Klucel (hydroxypropylcellulose) (HPC)) 90 % of control.

`CC(C)C(NC(=O)C(NC(=O)C(CCCN=C(N)N)NC(=O)C(N)CCCCN)C(C)C)C(N)=O` (configuration not stated) (H-KRVV-NH2; configuration not given here): the T/C is, setting by setting: under setting [8], 97 % of control; (dose: 50.0 mg/kg/injection, schedule: Q01DX009 (ip), vehicle: water) 96 % of control; (dose: 100.0 mg/kg/injection, schedule: Q01DX009 (ip), vehicle: water) 96 % of control; (dose: 200.0 mg/kg/injection, schedule: Q01DX009 (ip), vehicle: water) 99 % of control.

Consider `CC1OC(OCc2ccc(-c3ccccc3)cc2)CC(N)C1O` (configuration not stated), for which the T/C was 105 % of control (dose: 1.56 mg/kg/injection, schedule: Q01DX009 (ip), vehicle: water); 95 % of control (dose: 3.13 mg/kg/injection, schedule: Q01DX009 (ip), vehicle: water); 99 % of control (dose: 6.25 mg/kg/injection, schedule: Q01DX009 (ip), vehicle: water); 104 % of control (dose: 12.5 mg/kg/injection, schedule: Q01DX009 (ip), vehicle: water); 87 % of control under setting [8].

On to `O=[N+]([O-])c1cccs1`, for which the T/C by setting is: (dose: 25.0 mg/kg/injection, schedule: Q04DX003 (ip), vehicle: Klucel (hydroxypropylcellulose) (HPC)) 105 % of control; (dose: 50.0 mg/kg/injection, schedule: Q04DX003 (ip), vehicle: Klucel (hydroxypropylcellulose) (HPC)) 105 % of control; (dose: 100.0 mg/kg/injection, schedule: Q04DX003 (ip), vehicle: Klucel (hydroxypropylcellulose) (HPC)) 112 % of control.

Regarding `CCCCCCCCCCCCNC(=O)Nc1ccc(C)cc1C`, the T/C was 92 % of control under setting [5] and 96 % of control under setting [6].

Regarding `CCCCC(CC)COC(=O)/C=C/C(=O)OCC(CC)CCCC` (configuration not stated), the T/C under setting [6] is 90 % of control and the T/C under setting [7] was 87 % of control.

As for `C/C(=N\NC(N)=O)c1cccc(/C(C)=N/NC(N)=O)n1`, the T/C was 91 % of control (dose: 6.25 mg/kg/injection, schedule: Q01DX009 (ip), vehicle: saline with Tween-80); 96 % of control (dose: 12.5 mg/kg/injection, schedule: Q01DX009 (ip), vehicle: saline with Tween-80); 86 % of control (dose: 25.0 mg/kg/injection, schedule: Q01DX009 (ip), vehicle: saline with Tween-80); 88 % of control under setting [9]; 86 % of control under setting [10].

As to `CC1(C)SC2C(NC(=O)C(N)c3ccccc3)C(=O)N2C1C(=O)O` (configuration not stated), the T/C under setting [10] is 100 % of control, the T/C under setting [11] is 95 % of control and the T/C under setting [12] was 90 % of control.

In the case of `Cc1ccc(Cl)cc1NS(=O)(=O)c1ccccc1`, the T/C is 90 % of control under setting [10], 95 % of control under setting [11] and 90 % of control under setting [12].

Turning to `CCN(C(=O)Nc1ccc(Cl)cc1)c1ccccc1C`, the T/C reads like this: under setting [10], 97 % of control; under setting [11], 102 % of control; under setting [12], 97 % of control.

Take `O=C(O)COc1ccc([N+](=O)[O-])cc1`: the T/C was 96 % of control under setting [10] and 87 % of control under setting [11].

Consider `COc1cccc2c1C(=O)c1c(O)c3c(c(O)c1C2=O)CC(O)(/C(C)=N/NC(=O)CCCCC(=O)N/N=C(\C)C1(O)Cc2c(O)c4c(c(O)c2C(OC2CC(N)C(O)C(C)O2)C1)C(=O)c1c(OC)cccc1C4=O)CC3OC1CC(N)C(O)C(C)O1` (configuration not stated), for which the T/C is, setting by setting: (dose: 0.38 mg/kg/injection, schedule: Q01DX009 (ip), vehicle: water) 114 % of control; (dose: 1.5 mg/kg/injection, schedule: Q01DX009 (ip), vehicle: water) 177 % of control; (dose: 3.0 mg/kg/injection, schedule: Q01DX009 (ip), vehicle: water) 295 % of control; (dose: 6.0 mg/kg/injection, schedule: Q01DX009 (ip), vehicle: water) 208 % of control.

Turning to `CC(C)NNC(=O)C(N)CCC(=O)O` (configuration not stated), the T/C under setting [1] was 97 % of control, the T/C under setting [2] is 104 % of control, the T/C under setting [3] was 95 % of control and the T/C under setting [4] is 100 % of control.

As for `COC1C(O)CC(OC2C(C)OC(Oc3cc(O)c4c(O)c5c(cc4c3)C[C@@H]([C@H](OC)C(=O)[C@@H](O)[C@@H](C)O)[C@H](OC3CC(OC4CC(OC6CC(C)(O)C(O)C(C)O6)C(O)C(C)O4)C(O)C(C)O3)C5=O)CC2OC(C)=O)OC1C` (some centres not stated), the T/C is 110 % of control (dose: 37.5 mg/kg/injection, schedule: Q01DX009 (ip), vehicle: saline); 113 % of control (dose: 75.0 mg/kg/injection, schedule: Q01DX009 (ip), vehicle: saline); 111 % of control (dose: 150.0 mg/kg/injection, schedule: Q01DX009 (ip), vehicle: saline).

On to `CC(=O)N\C(N)=N/N=C\C(C)=N/N=C(\N)NC(C)=O`, for which the T/C is 108 % of control under setting [9], 99 % of control under setting [10] and 94 % of control under setting [11].

Regarding `CCN(CC)CCCC(C)NC/C=C/CNC(C)CCCN(CC)CC` (configuration not stated), the T/C is 105 % of control (dose: 6.25 mg/kg/injection, schedule: Q01DX009 (ip), vehicle: saline); 103 % of control (dose: 12.5 mg/kg/injection, schedule: Q01DX009 (ip), vehicle: saline); 102 % of control under setting [1].

As for `CCCCCCCC(O)CCCCC` (configuration not stated), the T/C under setting [5] was 99 % of control, the T/C under setting [6] is 103 % of control and the T/C under setting [7] was 94 % of control.

The values are drawn from PubChem BioAssay AID192 (DTP/NCI, 2004).
